# Results: PubChem BioAssay (NCI)
#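 1) Cells in 96-well plates. 2) Compound, 48 h, 5 concentrations. 3) Linear interpolation between surrounding doses. 4) Unreached endpoint = highest concentration. GI50 is the concentration that inhibits growth by half. TGI: total growth inhibition.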
# Columns and labels:
# Assay in all cases: NCI anticancer screen, dose series, 48 h
# [1] = tested on: NCI/ADR-RES ovarian
# [2] = tested on: BT-549 breast
# [3] = tested on: RXF 393 renal
# [4] = tested on: SN12C renal
# [5] = tested on: HCT-116 colon
# [6] = tested on: MCF7 breast
# [7] = tested on: UO-31 renal
# [8] = tested on: PC-3 prostate
# [9] = tested on: A549 NSCLC
# [10] = tested on: A498 renal
# [11] = tested on: SNB-75 CNS
# [12] = tested on: NCI-H522 lung
# [13] = tested on: SF-539 CNS
# [14] = tested on: SF-295 CNS
# [15] = tested on: IGROV1 ovarian
# [16] = tested on: MDA-MB-435
# [17] = tested on: MALME-3M melanoma
# [18] = tested on: MDA-MB-231 breast
# [19] = tested on: COLO 205 colon
# [20] = tested on: NCI-H226 lung
# [21] = tested on: CCRF-CEM leukemia
# [22] = tested on: OVCAR-3 ovarian
# [23] = tested on: ACHN renal
# [24] = tested on: MOLT-4 leukemia
# [25] = tested on: UACC-257 melanoma
# [26] = tested on: SK-OV-3 ovarian
# [27] = tested on: EKVX NSCLC
# [28] = tested on: SF-268 CNS
# [29] = tested on: UACC-62 melanoma
# [30] = tested on: CAKI-1 renal
# [31] = tested on: DU-145 prostate
# [32] = tested on: LOX IMVI melanoma
# [33] = tested on: K-562 leukemia
# [34] = tested on: HS 578T breast
# [35] = tested on: SK-MEL-28 melanoma
# [36] = tested on: SK-MEL-5 melanoma
# [37] = tested on: OVCAR-5 ovarian
# [38] = tested on: TK-10 renal
# [39] = tested on: HT29 colon
# [40] = tested on: HCC-2998 colon
# [41] = tested on: M14 melanoma
# [42] = tested on: 786-0 renal
# [43] = tested on: T-47D breast
# [44] = tested on: NCI-H23 lung
# [45] = tested on: HOP-62 NSCLC
# [46] = tested on: U251 CNS
# [47] = tested on: OVCAR-8 ovarian
# [48] = tested on: SNB-19 CNS
# [49] = tested on: HL-60(TB) leukemia
# [50] = tested on: HOP-92 NSCLC
# [51] = tested on: KM12 colon
# [52] = tested on: OVCAR-4 ovarian
# [53] = tested on: SW-620 colon
# [54] = tested on: NCI-H460 lung
# [55] = tested on: HCT-15 colon
# [56] = tested on: RPMI-8226 leukemia
# [57] = tested on: SR leukemia
# [58] = tested on: SK-MEL-2 melanoma
smiles,measurement,setting,value
CS/C(=N\S(=O)(=O)c1cc(C)c(Cl)cc1Cl)NNc1cnc2ccccc2n1,TGI,[1],> 100 µM
same,TGI,[2],> 100 µM
same,TGI,[3],> 100 µM
same,TGI,[4],> 100 µM
same,TGI,[5],> 100 µM
same,TGI,[6],> 100 µM
same,TGI,[7],> 100 µM
same,TGI,[8],> 100 µM
same,TGI,[9],> 100 µM
same,TGI,[10],> 100 µM
same,TGI,[11],> 100 µM
same,TGI,[12],> 100 µM
same,TGI,[13],> 100 µM
same,TGI,[14],> 100 µM
same,TGI,[15],> 100 µM
same,TGI,[16],> 100 µM
same,TGI,[17],> 100 µM
same,TGI,[18],> 100 µM
same,TGI,[19],> 100 µM
same,TGI,[20],> 100 µM
same,TGI,[21],> 100 µM
same,TGI,[22],> 100 µM
same,TGI,[23],> 100 µM
same,TGI,[24],> 100 µM
same,TGI,[25],> 100 µM
same,TGI,[26],> 100 µM
same,TGI,[27],> 100 µM
same,TGI,[28],> 100 µM
same,TGI,[29],> 100 µM
same,TGI,[30],> 100 µM
same,TGI,[31],> 100 µM
same,TGI,[32],> 100 µM
same,TGI,[33],> 100 µM
same,TGI,[34],> 100 µM
same,TGI,[35],> 100 µM
same,TGI,[36],> 100 µM
same,TGI,[37],> 100 µM
same,TGI,[38],> 100 µM
same,TGI,[39],> 100 µM
same,TGI,[40],> 100 µM
same,TGI,[41],> 100 µM
same,TGI,[42],> 100 µM
same,TGI,[43],> 100 µM
same,TGI,[44],> 100 µM
same,TGI,[45],> 100 µM
same,TGI,[46],> 100 µM
same,TGI,[47],> 100 µM
same,TGI,[48],> 100 µM
same,TGI,[49],> 100 µM
same,TGI,[50],> 100 µM
same,TGI,[51],> 100 µM
same,TGI,[52],> 100 µM
same,TGI,[53],> 100 µM
same,TGI,[54],> 100 µM
same,TGI,[55],> 100 µM
O=C(Nc1ccc(OCc2nnc(-c3ccccc3)o2)c(F)c1)Nc1ccc(Cl)c(C(F)(F)F)c1,GI50,[1],2.27 µM
same,TGI,[1],7.65 µM
same,GI50,[2],3.51 µM
same,TGI,[2],13.1 µM
same,GI50,[3],2.62 µM
same,TGI,[3],8.98 µM
same,GI50,[4],1.91 µM
same,TGI,[4],6.23 µM
same,GI50,[5],1.81 µM
same,TGI,[5],6.37 µM
same,GI50,[6],2.29 µM
same,TGI,[6],8.93 µM
same,GI50,[7],1.49 µM
same,TGI,[7],2.93 µM
same,GI50,[8],1.3 µM
same,TGI,[8],4.85 µM
same,GI50,[9],1.91 µM
same,TGI,[9],35.5 µM
same,GI50,[10],1.61 µM
same,TGI,[10],4.25 µM
same,GI50,[56],1.11 µM
same,TGI,[56],3.57 µM
same,GI50,[11],1.64 µM
same,TGI,[11],5.08 µM
same,GI50,[12],1.51 µM
same,TGI,[12],4.87 µM
same,GI50,[13],2.41 µM
same,TGI,[13],13 µM
same,GI50,[57],1.37 µM
same,TGI,[57],4.31 µM
same,GI50,[14],2.18 µM
same,TGI,[14],6.83 µM
same,GI50,[15],2.12 µM
same,TGI,[15],5.23 µM
same,GI50,[16],2.71 µM
same,TGI,[16],> 100 µM
same,GI50,[17],1.78 µM
same,TGI,[17],4.98 µM
same,GI50,[18],2.3 µM
same,TGI,[18],6.03 µM
same,GI50,[19],2.11 µM
same,TGI,[19],5.52 µM
same,GI50,[20],3.65 µM
same,TGI,[20],28.3 µM
same,GI50,[21],2.38 µM
same,TGI,[21],10.6 µM
same,GI50,[22],2.06 µM
same,TGI,[22],7.25 µM
same,GI50,[23],1.84 µM
same,TGI,[23],4.42 µM
same,GI50,[24],1.61 µM
same,TGI,[24],7.13 µM
same,GI50,[26],3.17 µM
same,TGI,[26],9.46 µM
same,GI50,[28],3.52 µM
same,TGI,[28],19.2 µM
same,GI50,[29],2.48 µM
same,TGI,[29],6.91 µM
same,GI50,[31],1.8 µM
same,TGI,[31],3.53 µM
same,GI50,[32],2.83 µM
same,TGI,[32],12.9 µM
same,GI50,[33],2.07 µM
same,TGI,[33],8.79 µM
same,GI50,[34],2 µM
same,TGI,[34],7.09 µM
same,GI50,[35],3.08 µM
same,TGI,[35],> 100 µM
same,GI50,[36],1.74 µM
same,TGI,[36],3.59 µM
same,GI50,[37],7.56 µM
same,TGI,[37],> 100 µM
same,GI50,[38],2.62 µM
same,TGI,[38],8.24 µM
same,GI50,[39],2.33 µM
same,TGI,[39],9.9 µM
same,GI50,[40],2.58 µM
same,TGI,[40],7.83 µM
same,GI50,[41],2.97 µM
same,TGI,[41],47 µM
same,GI50,[42],2.11 µM
same,TGI,[42],4.21 µM
same,GI50,[43],2.31 µM
same,TGI,[43],7.15 µM
same,GI50,[44],2.37 µM
same,TGI,[44],8.09 µM
same,GI50,[45],2.84 µM
same,TGI,[45],7.95 µM
same,GI50,[46],1.54 µM
same,TGI,[46],4.68 µM
same,GI50,[47],2.57 µM
same,TGI,[47],11.5 µM
same,GI50,[48],2.35 µM
same,TGI,[48],16.7 µM
same,GI50,[49],1.99 µM
same,TGI,[49],4.61 µM
same,GI50,[50],1.78 µM
same,TGI,[50],5.17 µM
same,GI50,[51],1.47 µM
same,TGI,[51],5.09 µM
same,GI50,[52],2.49 µM
same,TGI,[52],8.52 µM
same,GI50,[53],3.6 µM
same,TGI,[53],35.4 µM
same,GI50,[54],1.52 µM
same,TGI,[54],3.7 µM
same,GI50,[55],2.28 µM
same,TGI,[55],14.8 µM
same,GI50,[58],2.64 µM
same,TGI,[58],7.12 µM
